For 6 compounds, pest or weed control, melting point and plant injury results are on record in patent publication US8658791B2, “2-substituted-6-amino-5-alkyl, alkenyl or alkynyl-4-pyrimidinecarboxylic acids and 6-substituted-4-amino-3-alkyl, alkenyl or alkynyl picolinic acids and their use as herbicides” (Dow AgroSciences, LLC, priority 2007, dated 2014).

Molecules are shown by their SMILES.

In series [1] the test system is barnyardgrass (Echinochloa crus-galli). In words: General postemergence herbicidal activity, ECHCG. It counts as in vivo. Conditions: Echinochloa crus-galli, post-emergence, 336 h, postemergence spray, visual score after 14 days, 0 = no injury, 100 = complete kill, read-out: Post-emergent Weed Control ECHCG; for pest or weed control at 140 g/ha: 140 g ai/ha. A digest of the protocol: (§1)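 Test species were grown 7-21 days in potting mix under greenhouse conditions, then treated postemergence by track sprayer delivering 187 L/ha. Rates comprised the high rate and twofold dilutions down to 1/16X. After 14 days with sub-irrigation, damage is scored from 0 (no injury) to 100 (complete kill).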

The subject of series [2] is wild poinsettia (Euphorbia heterophylla). In words: General preemergence herbicidal activity, EPHHL. Format: in vivo. Conditions: applied to soil surface, visual score after 20-22 days, 0 = no injury, 100 = complete kill or no emergence, read-out: Pre-emergent Weed Control EPHHL; for pest or weed control at 140 g/ha: 140 g ai/ha. An excerpt:
(§2) Seeds of the desired test plant species were planted in a soil matrix prepared by mixing a loam soil (43 percent silt, 19 percent clay, and 38 percent sand, with a pH of about 8.1 and an organic matter content of about 1.5 percent) and sand in a 70 to 30 ratio. The soil matrix was contained in plastic pots with a surface area of 127 square centimeters. When required to ensure good germination and healthy plants, a fungicide treatment and/or other chemical or physical treatment was applied. A weighed amount, determined by the highest rate to be tested, of each test compound was placed in a 25 mL glass vial and was dissolved in 6 mL of a 97:3 v/v (volume/volume) mixture of acetone and DMSO to obtain concentrated stock solutions. […] The stock solutions obtained were diluted with 18 mL of a 0.1% v/v aqueous solution of Tween® 20 surfactant to obtain spray solutions containing the highest application rate. Additional application rates were obtained by serial dilution of 12 mL of the high rate solution into a solution containing 3 mL of 97:3 v/v mixture of acetone and DMSO and 9 mL of the 0.1% v/v aqueous solution of Tween® 20 surfactant to obtain 1/2X, 1/4X, 1/8X and 1/16X rates of the high rate. Compound requirements are based upon a 12 mL application volume at a rate of 187 L/ha. Formulated compounds were applied to the soil surface with an overhead Mandel track sprayer equipped with a […] nozzles calibrated to deliver 187 L/ha over an application area of 0.503 square meters at a spray height of 18 inches (43 cm) above the soil surface. Control pots were sprayed in the same manner with the solvent blank. The treated pots and control pots were placed in a greenhouse maintained with an approximate 15 hour photoperiod and temperatures of about 23-29° C. during the day and 22-28° C. during the night. Nutrients and water were added on a regular basis and supplemental lighting was provided with overhead metal halide 1000-Watt lamps as necessary. The water was added by top-irrigation. After 20-22 days, the condition of the test plants that germinated and grew as compared with that of the untreated plants that emerged and grew was determined visually and scored on a scale of 0 to 100 percent where 0 corresponds to no injury and 100 corresponds to complete kill or no emergence.

Series [3] has as its system lambsquarter (Chenopodium album). Put plainly: General postemergence herbicidal activity, CHEAL. Conditions: Chenopodium album, post-emergence, 336 h, postemergence spray, visual score after 14 days, 0 = no injury, 100 = complete kill, read-out: Post-emergent Weed Control CHEAL; for pest or weed control at 140 g/ha: 140 g ai/ha. It counts as in vivo. The method, boiled down: as §1

Series [4] concerns velvetleaf (Abutilon theophrasti). In words: General postemergence herbicidal activity, ABUTH. It counts as in vivo. Conditions: Abutilon theophrasti, post-emergence, 336 h, postemergence spray, visual score after 14 days, 0 = no injury, 100 = complete kill, read-out: Post-emergent Weed Control ABUTH; for pest or weed control at 140 g/ha: 140 g ai/ha. A digest of the protocol:
as §1

Series [5] concerns barnyardgrass (Echinochloa crus-galli). In words: General preemergence herbicidal activity, ECHCG. Format: in vivo. Conditions: applied to soil surface, visual score after 20-22 days, 0 = no injury, 100 = complete kill or no emergence, read-out: Pre-emergent Weed Control ECHCG; for pest or weed control at 140 g/ha: 140 g ai/ha.
Source text: as §2

For series [6], the system named is velvetleaf (Abutilon theophrasti). In words: General preemergence herbicidal activity, ABUTH. Format: in vivo. Conditions: applied to soil surface, visual score after 20-22 days, 0 = no injury, 100 = complete kill or no emergence, read-out: Pre-emergent Weed Control ABUTH; for pest or weed control at 140 g/ha: 140 g ai/ha.
Source text: as §2

The test system of series [7] is rice (Oryza sativa). Put plainly: General postemergence herbicidal activity, ORYSA. It counts as in vivo. The settings on record: Oryza sativa, post-emergence, 336 h, postemergence spray, visual score after 14 days, 0 = no injury, 100 = complete kill, read-out: Post-emergent Weed Control ORYSA; for plant injury at 140 g/ha: 140 g ai/ha. The method, boiled down: as §1

For series [8], the system named is wild poinsettia (Euphorbia heterophylla). In words: General postemergence herbicidal activity, EPHHL. It counts as in vivo. Conditions: Euphorbia heterophylla, post-emergence, 336 h, postemergence spray, visual score after 14 days, 0 = no injury, 100 = complete kill, read-out: Post-emergent Weed Control EPHHL; for pest or weed control at 140 g/ha: 140 g ai/ha. A digest of the protocol:
as §1

The subject of series [9] is rice (Oryza sativa). Put plainly: General preemergence herbicidal activity, ORYSA. The settings on record: applied to soil surface, visual score after 20-22 days, 0 = no injury, 100 = complete kill or no emergence, read-out: Pre-emergent Weed Control ORYSA; for plant injury at 140 g/ha: 140 g ai/ha. It counts as in vivo.
Source text: as §2

The subject of series [10] is lambsquarter (Chenopodium album). In words: General preemergence herbicidal activity, CHEAL. It counts as in vivo. The settings on record: applied to soil surface, visual score after 20-22 days, 0 = no injury, 100 = complete kill or no emergence, read-out: Pre-emergent Weed Control CHEAL; for pest or weed control at 140 g/ha: 140 g ai/ha.
Source text: as §2

The melting point is the temperature, or range, at which the solid turns liquid. The compound `COC(=O)c1nc(-c2ccc(Cl)c(OC)c2F)nc(N)c1C` [Compound 2, 6-Amino-2-(4-chloro-2-fluoro-3-methoxyphenyl)-5-methylpyrimidine-4-carboxylic acid methyl ester] came in with a melting point of 168 to 170 °C. Besides, in series [1] (280 g ai/ha), the pest or weed control at 280 g/ha turned out to be 95%. In series [2], the pest or weed control at 140 g/ha is 95%. Moreover, in series [3] (280 g ai/ha), the pest or weed control at 280 g/ha is 100%. The pest or weed control at 280 g/ha in series [4] (280 g ai/ha) stood at 95%. Moreover, the pest or weed control at 140 g/ha in series [5] stood at 0%. Besides, in series [6], the pest or weed control at 140 g/ha turned out to be 40%. For the same compound, in the series with rice (Oryza sativa) [7] (280 g ai/ha), the plant injury at 280 g/ha turned out to be 0%. In addition, the pest or weed control at 280 g/ha in series [8] (280 g ai/ha) was determined as 100%. In the series on rice (Oryza sativa) [9], the plant injury at 140 g/ha worked out at 15%. In series [10], the pest or weed control at 140 g/ha stood at 80%.

In turn, `C=Cc1c(N)nc(C2CC2)nc1C(=O)OCC` [Compound 4, 6-Amino-2-cyclopropyl-5-vinylpyrimidine-4-carboxylic acid ethyl ester] registered a melting point of 155 to 157 °C. The pest or weed control at 140 g/ha in series [1] was 0%. Further, the pest or weed control at 280 g/ha in series [2] (280 g ai/ha) is 100%. Also, the pest or weed control at 140 g/ha in series [3] stood at 100%. Moreover, the pest or weed control at 140 g/ha in series [4] turned out to be 100%. Besides, the pest or weed control at 280 g/ha in series [5] (280 g ai/ha) worked out at 50%. In addition, in [6] (280 g ai/ha), the pest or weed control at 280 g/ha came out at 90%. The plant injury at 140 g/ha in the series on rice (Oryza sativa) [7] was found to be 0%. The pest or weed control at 140 g/ha in series [8] worked out at 100%. In the series on rice (Oryza sativa) [9] (280 g ai/ha), the plant injury at 280 g/ha worked out at 0%. Further, the pest or weed control at 280 g/ha in [10] (280 g ai/ha) stood at 100%.

Compound `C=Cc1c(N)nc(-c2ccc(Cl)cc2F)nc1C(=O)OC` [Compound 5, 6-Amino-2-(4-chloro-2-fluorophenyl)-5-vinylpyrimidine-4-carboxylic acid methyl ester] gave a melting point of 137 to 139 °C. Moreover, in [1], the pest or weed control at 140 g/ha amounted to 80%. The pest or weed control at 140 g/ha in [2] was found to be 90%. Further, the pest or weed control at 140 g/ha in series [3] is 100%. Moreover, the pest or weed control at 140 g/ha in series [4] is 100%. In addition, the pest or weed control at 140 g/ha in series [5] is 0%. For the same compound, the pest or weed control at 140 g/ha in [6] was 100%. Also, the plant injury at 140 g/ha in the series with rice (Oryza sativa) [7] was found to be 5%. Besides, the pest or weed control at 140 g/ha in [8] came out at 100%. In addition, in the series with rice (Oryza sativa) [9], the plant injury at 140 g/ha was found to be 10%. In addition, in series [10], the pest or weed control at 140 g/ha came out at 95%.

For the compound `C=Cc1c(N)nc(-c2ccc(Cl)cc2F)nc1C(=O)O` [Compound 42, 6-Amino-2-(4-chloro-2-fluorophenyl)-5-vinylpyrimidine-4-carboxylic acid], the melting point lay in the range of 167 to 169 °C. In [2], the pest or weed control at 140 g/ha turned out to be 100%. For the same compound, the pest or weed control at 140 g/ha in series [5] was found to be 30%. For the same compound, the pest or weed control at 140 g/ha in [6] amounted to 100%. For the same compound, in the series with rice (Oryza sativa) [9], the plant injury at 140 g/ha came to 10%. Also, the pest or weed control at 140 g/ha in [10] was 100%.

In the case of `C/C=C\c1c(N)nc(-c2ccc(Cl)c(OC)c2F)nc1C(=O)O` [Compound 55, 6-Amino-2-(4-chloro-2-fluoro-3-methoxyphenyl)-5-((Z)-propenyl)pyrimidine-4-carboxylic acid], the pest or weed control at 70 g/ha in series [1] (70 g ai/ha), in series [3] (70 g ai/ha), in series [4] (70 g ai/ha) and in [8] (70 g ai/ha) was 100% throughout. Also, the pest or weed control at 140 g/ha in series [2] was 100%; in series [5] it was 60%; in series [6], 100%; in series [10], 100%. Besides, the plant injury at 70 g/ha in the series on rice (Oryza sativa) [7] (70 g ai/ha) is 15%. For the same compound, in the series with rice (Oryza sativa) [9], the plant injury at 140 g/ha was found to be 30%.

With `C=Cc1c(N)cc(-c2ccc(Cl)c(OC)c2F)nc1C(=O)O` [Compound 59, 4-Amino-6-(4-chloro-2-fluoro-3-methoxyphenyl)-3-vinylpyridine-2-carboxylic acid], the pest or weed control at 140 g/ha in series [1], in series [2], in series [3], in series [4], in series [5] and in [6] was 100% in each case. Further, the pest or weed control at 140 g/ha in series [8] and in series [10] was 100% in each case. The plant injury at 140 g/ha in the series with rice (Oryza sativa) [7] and with rice (Oryza sativa) [9] was 0% each time.
